Reference: patent US10987346B2, “Iloperidone for the treatment of schizophrenia” (Vanda Pharmaceuticals, Inc., priority 2015, dated 2021)

Legend:
[1] = tested on: patients with schizophrenia; test: Randomized withdrawal relapse-prevention study (NCT01291511): efficacy assessments; format: in vivo, human; conditions: for Avg Time to Relapse or Impending Relapse: full analysis population; for Hazard Ratio (95% CI): favoring iloperidone over placebo
Procedure: Study subjects were adults with schizophrenia who were first treated with open-label iloperidone 12 mg/day given as 6 mg BID and then stabilized for a further 14-24 weeks with a flexible-dose iloperidone regimen as per investigator judgment ranging between 8-24 mg/day daily dose (given BID). Subjects who remained clinically stable for at least 12 weeks entered the relapse prevention phase and were randomized 1:1 to either continue on the same flexible dose regimen of iloperidone or to withdraw from iloperidone to matched placebo in a double-blinded fashion. Subjects were followed for up to 26 weeks and were withdrawn upon showing signs of relapse or impending relapse. A pre-defined unblinded interim analysis (IA) was conducted utilizing a group sequential testing procedure with an O'Brien-Fleming stopping boundary after 68 relapse or impending relapse events were observed. The primary outcome was time-to-relapse or impending relapse with event criteria defined in the protocol prior to first subject enrollment.
A randomized, double-blind, placebo-controlled, parallel-group study (ClinicalTrials.gov identifier NCT01291511) was performed at 27 centers in the United States, 15 in India and 24 in Ukraine.
The study consisted of five phases, the first four of which are shown in FIG. 1: screening phase, open-label titration phase, open-label stabilization phase, double-blind randomized withdrawal phase, and open-label extension phase (not shown).
In the Open-Label Titration Phase, patients received iloperidone 1, 2, 4, 6, 6, 6, 6 mg twice daily on Days 1 through 7, respectively. All previous antipsychotic treatments were discontinued prior to, or within 4 days, after the first day of iloperidone treatment. If the Investigator felt that it was necessary to titrate down the previous antipsychotic medication, the dose reduction was to be done within the first 4 days initiating iloperidone treatment (i.e., previous medication fully discontinued by Day 4).
In the Open-Label Stabilization Phase, patients received flexible doses of iloperidone 4 to 12 mg twice daily (8 to 24 mg/day). Patients needed to be clinically stable for a minimum of 12 weeks prior to randomization.
In the Double-Blind Randomized Withdrawal Phase, patients were randomized to receive iloperidone or placebo. Patients randomized to iloperidone initially took the dose level being received during the last 4 weeks of the Stabilization Phase and then treated with flexible doses of iloperidone 4 to 12 mg twice daily (8 to 24 mg/day).
Patients needed to be clinically stable throughout the last 12 weeks of the Stabilization Phase to be eligible for randomization. “Clinically stable” adult outpatients were defined as: meeting DSM-IV criteria for schizophrenia, and remaining stable following 12 weeks of open-label treatment with flexible doses of iloperidone, being on an established dose of iloperidone that remained unchanged due to efficacy during the 4 weeks prior to randomization; PANSS total score ≤70 and CGI-S score ≤4; Score of ≤4 on each of the following individual PANSS items: P1 (delusion), P2 (conceptual disorganization), P3 (hallucinatory behavior), P6 (suspiciousness/persecution), P7 (hostility), or G8 (uncooperativeness); and no hospitalization or increase in level of care to treat exacerbations.
The primary efficacy endpoint was time to relapse or impending relapse. Relapse or impending relapse during the double-blind relapse prevention phase was defined as any of the following: hospitalization (voluntary or involuntary) due to worsening of schizophrenia; an increase (worsening) of the PANSS total score of ≥30% from randomization, confirmed at a second visit conducted with 1 to 7 days later; patient had clinically significant suicidal, homicidal, or aggressive behavior; CGI-I score of ≥6 (much worse) or 7 (very much worse) after randomization; or an increase in iloperidone dose or in need of additional antipsychotic treatment. […]

[2] = tested on: patients with schizophrenia; test: Randomized withdrawal relapse-prevention study (NCT01291511): safety assessments; format: in vivo, human; conditions: for Patients with at least 1 TEAE: Full Analysis Population; for Primary Reason for Discontinuation: Abnormal Laboratory Value(s) / Primary Reason for Discontinuation: Abnormal Test Procedure Result(s) / Primary Reason for Discontinuation: Adverse Event(s) / Primary Reason for Discontinuation: Death: interim analysis population, % of discontinued
Source text: Safety assessments included collection of adverse events (AEs), clinical laboratory evaluations, 12-lead electrocardiograms (ECGs), body weight, vital signs, Columbia Suicide Severity Rating Scale (C-SSRS), and movement disorder rating scales (Barnes Akathisia Scale [BAS], Abnormal Involuntary Movement Scale [AIMS], and Simpson Angus Scale [SAS]).
The safety population was defined for each study phase (Titration and Stabilization or Double-Blind Relapse Prevention). For each phase, the safety population included all patients who received at least 1 dose of study medication during the corresponding phase. Descriptive statistics by study phase for each of the safety assessments were calculated.

[3] = Double-Blind Relapse Prevention Phase, N = 151
[4] = Relapse Prevention Phase, end of the study
[5] = Titration and Stabilization Phase
[6] = Titration/Stabilization Phase, N = 629
[7] = end of Titration and Stabilization Phase

Q: Which results are given for COc1cc(C(C)=O)ccc1OCCCN1CCC(c2noc3cc(F)ccc23)CC1 [iloperidone]?
A: Avg Time to Relapse or Impending Relapse ([1]; 8 mg/d, n=18): <30 days; Avg Time to Relapse or Impending Relapse ([1]; 12 mg/d, n=58): >120 days; Avg Time to Relapse or Impending Relapse ([1]; 20 mg/d, n=14): >120 days; Average Time to Relapse ([1]; Final (FAS)): 140 days; Relapse Rate ([1]; Final (FAS) (N = 151)): 17.9%; Hazard Ratio (95% CI) ([1]; Final (FAS)): 5.2; Hazard Ratio (95% CI) ([1]; Final (FAS), listed as Iloperidone): 5.2 (3.2, 8.4); Relapse Rate ([1]; Interim Analysis Population (N = 97)): 20.4%; Hazard Ratio (95% CI) ([1]; Interim Analysis Population, Cox regression): 4.7; Hazard Ratio (95% CI) ([1]; Interim Analysis Population, Cox regression, listed as Iloperidone): 4.7 (2.7, 8.3); Average Time to Relapse ([1]; Interim Analysis Population, KM estimates): 139 days; CGI-I outcome in the majority of patients ([1]; Relapse Prevention Phase): showed improvement; adjusted mean CGI-I score ([1]; Relapse Prevention Phase, LOCF): 3.3; adjusted mean change from randomization baseline at endpoint in PANSS total score ([1]; Relapse Prevention Phase, LOCF): 2.3 points; mean improvement on the PANSS total score ([1]; during Titration and Stabilization Phase, patients randomized in the IA (N=195)): −19.5±10.1 points; time to relapse compared with placebo (FIG. 2) ([1]; interim analysis population, Kaplan-Meier): statistically significant longer time to relapse; estimated relapse rate at the end of the double-blind relapse prevention phase (KM est.) ([1]; interim analysis, flexible dose 8-24 mg/day): 20.4%; TEAE incidence: Dizziness [2, 3]: 4 (2.6) n (%); TEAE incidence: Dry Mouth [2, 3]: 0 n (%); TEAE incidence: Headache [2, 3]: 3 (2.0) n (%); TEAE incidence: Insomnia [2, 3]: 3 (2.0) n (%); TEAE incidence: Nausea [2, 3]: 2 (1.3) n (%); TEAE incidence: Schizophrenia [2, 3]: 3 (2.0) n (%); TEAE incidence: Somnolence [2, 3]: 2 (1.3) n (%); TEAE incidence: Weight increased [2, 3]: 2 (1.3) n (%); Patients with at least 1 TEAE [2, 3]: 60 (39.7) n (%); changes in AIMS scores ([2]; Relapse Prevention Phase): No clinically meaningful changes; mean change from baseline in QTcF ([2]; Relapse Prevention Phase): 4.9 ms; most common SAE: schizophrenia ([2]; Relapse Prevention Phase): 1.3%; patients discontinued due to TEAEs ([2]; Relapse Prevention Phase): 6%; patients reporting akathisia as TEAE ([2]; Relapse Prevention Phase): 1%; patients reporting extrapyramidal disorder as TEAE ([2]; Relapse Prevention Phase): 1%; patients who experienced a SAE ([2]; Relapse Prevention Phase): 4%; patients who experienced a TEAE ([2]; Relapse Prevention Phase): 40%; patients in whom akathisia was absent (BAS) ([2]; Relapse Prevention Phase, at completion): 95%; mean change from baseline in weight [2, 4]: 0.02 kg; patients with ≥7% increase in weight from baseline [2, 4]: 38%; waist circumference versus placebo [2, 4]: no notable differences; Primary Reason for Discontinuation: Abnormal Laboratory Value(s) ([2]; Relapse Prevention Phase): 3 (13) n (%); Primary Reason for Discontinuation: Abnormal Test Procedure Result(s) ([2]; Relapse Prevention Phase): 1 (4) n (%); Primary Reason for Discontinuation: Adverse Event(s) ([2]; Relapse Prevention Phase): 3 (13) n (%); Primary Reason for Discontinuation: Death ([2]; Relapse Prevention Phase): 1 (4) n (%); changes in Abnormal Involuntary Movement Scale (AIMS) scores [2, 5]: No clinically meaningful changes; discontinuation due to TEAE: QT prolongation [2, 5]: 1.1%; discontinuation due to TEAE: dizziness [2, 5]: 1.4%; discontinuation due to TEAE: schizophrenia [2, 5]: 1.9%; mean change from baseline in QTcF [2, 5]: 6.4 ms; most common SAE: schizophrenia [2, 5]: 1.4%; patients discontinued due to TEAEs [2, 5]: 15%; patients reporting akathisia as TEAE [2, 5]: 4%; patients reporting extrapyramidal disorder as TEAE [2, 5]: 3%; patients who experienced a SAE [2, 5]: 4%; patients who experienced a Treatment-Emergent Adverse Event (TEAE) [2, 5]: 69%; patients who died while receiving iloperidone ([2]; Titration and Stabilization Phase, one patient, alcohol poisoning): 0.2%; TEAE incidence: Dizziness [2, 6]: 73 (11.6) n (%); TEAE incidence: Dry Mouth [2, 6]: 43 (6.8) n (%); TEAE incidence: Headache [2, 6]: 40 (6.4) n (%); TEAE incidence: Insomnia [2, 6]: 35 (5.6) n (%); TEAE incidence: Nausea [2, 6]: 32 (5.1) n (%); TEAE incidence: Schizophrenia [2, 6]: 15 (2.4) n (%); TEAE incidence: Somnolence [2, 6]: 52 (8.3) n (%); TEAE incidence: Weight increased [2, 6]: 34 (5.4) n (%); Patients with at least 1 TEAE [2, 6]: 433 (68.8) n (%); Primary Reason for Discontinuation: Abnormal Laboratory Value(s) ([2]; Titration/Stabilization Phase): 19 (8) n (%); Primary Reason for Discontinuation: Abnormal Test Procedure Result(s) ([2]; Titration/Stabilization Phase): 5 (2) n (%); Primary Reason for Discontinuation: Adverse Event(s) ([2]; Titration/Stabilization Phase): 80 (32) n (%); Primary Reason for Discontinuation: Death ([2]; Titration/Stabilization Phase): 1 (<1) n (%); mean change from baseline in weight [2, 7]: 0.5 kg; patients in whom akathisia was absent (Barnes Akathisia Scale) [2, 7]: 97%; patients with ≥7% increase in weight from baseline [2, 7]: 17%; QTcF prolongation in relation to dose/exposure ([2]; longer-term trial, higher exposures associated with more QT prolongation): dose-dependent; adverse events during maintenance period ([2]; patients administered 16 mg/day or less): reduction in adverse events; most common adverse events suspected to be related to iloperidone ([2]; stabilization phase): dizziness, somnolence and dry mouth; patients with elevations in LDL ([2]; versus none on placebo): 2.6%; patients with elevations in blood urea nitrogen (BUN) ([2]; versus none on placebo): 4.5%
